Assay results taken from patent US11685733B2, “Compounds for treating Rac-GTPase mediated disorder” (Children's Medical Center Corporation, priority 2018, dated 2023).
Entries after “also recorded” stand apart in the source; their conditions may differ.

Experiments:
[1] = tested on: SEM, RS4,11, and P12 leukemia cell lines; assay: Inhibition of proliferation in three leukemia cell lines; type: cell-based; details: Homo sapiens; range over SEM, RS4,11 and P12 cell lines
Method: Compound 1 was assayed for inhibition of proliferation in three leukemia cell lines, i.e., (1) SEM, (2) RS4,11, and (3) P12 by […]. The cells for the proliferation assay were spun down and re-suspended. The cell suspension was then divided and Compound 1 was added in desired concentrations and subsequently plated. Following an incubation period, the […] (Promega CellTiter 96® Aqueous Non-Radioactive Cell Proliferation Assay) was added and allowed to incubate. The absorbance is subsequently measured at 490 nm using a plate reader.

SEM cell line = assay: Flow based Annexin V apoptosis and cell death assay; set-up: species or system human; details: Annexin V kit
Text: Compound 1 was further analyzed for its effect on cell apoptosis and cell death using a flow based assay using Annexin V kit.

Rac = assay: Pull down assay of Rac activation with Western blot; type: cell-based, human; details: SEM cell line
Method: Further, a biochemical pull down assay using the SEM cell line was performed to confirm specific inhibition of Rac activation by Compound 1 as indicated by disruption of the interaction between Rac and GTPase. The assay initially required treatment of cells followed by pull down and analysis with Western blot. The cells were first starved in serum free media for 2 hours. They were then re-suspended in serum-containing medium. NSC23766 and Compound 1 were added at desired concentrations. Following incubation for the desired length of time, the cells were pelleted and lysed with Magnesium Lysis Buffer (Millipore Mg^2+ lysis/wash buffer).

[2] = tested on: mononuclear bone marrow cells from WT mice; assay: Colony forming unit assay (CFU assay) for toxicity; type: cell-based
Method: The formulation obtained in Example 2 was used for evaluating the toxicity of Compound 1 in a colony forming unit assay (CFU assay), which was performed by plating mononuclear bone marrow cells from WT mice in methylcellulose media supplemented with different doses of Compound 1, NSC23766, and DMSO. The number of colonies formed in each condition was scored 7 days after plating.

P12 xenograft = assay: Anti-leukemia activity in mouse model of human leukemia (bioluminescence imaging, mCherry cells in bone marrow); type: in vivo, mice; details: 10 mg/kg and 100 mg/kg
Method: (§1) Bioluminecence imaging (BLI) analysis was performed by treating a mouse model (8 mice) of human leukemia (P12 xenograft) with two different doses of Compound 1 (i.e., 10 and 100 mg/kilogram of body weight) using the formulation obtained in Example 2. P12 cells were transduced with a vector encoding for Luciferase and mCherry as a fluorescent marker. Treatment was started 5 days after inoculation of the cell line, and carried out by oral gavage for 18 days twice a day. Mice were imaged twice a week to obtain a quantification of the disease burden.

[3] = Relative weight of mice during the efficacy study; type: in vivo; details: 10 mg/kg and 100 mg/kg, normalized to average weight before treatment
Method: as §1

[4] = tested on: sensitive leukemic cell lines; assay: Induction of apoptosis in leukemic cell lines
[5] = tested on: P12 cells with NRAS G12D mutation

Structure (SMILES)	IC50 [1] [µM]	cell apoptosis and cell death (SEM cell line)	total Rac levels (Rac)	Rac activation (Rac; pull down)	concentration up to which no toxicity toward clonogenic progenitor bone marrow cells was seen ([2]; colonies scored 7 days after plating) [µM]	concentration without toxicity relative to the IC50 ([2]; fold the IC50) [fold]	mCherry positive cells in the bone marrow (P12 xenograft; fold change to the vehicle group)	bioluminescence (disease burden) (P12 xenograft; oral gavage twice a day for 18 days)	relative weight of the mice [3]	apoptosis [4]	PDE6D/ARL2/3-dependent trafficking of RAS [5]
O=C(CCc1nnc(CCc2c[nH]c3ccccc23)o1)N1CCN(c2ccc(F)cc2)CC1 [Compound 1, 1-[4-(4-fluorophenyl)piperazin-1-yl]-3-{5-[2-(1H-indol-3-yl)ethyl]-1,3,4-oxadiazol-2-yl}propan-1-one]	0.8 to 7	caused cells apoptosis and cell death in the SEM cell line in a dose-dependent manner	no significant effect on total Rac levels	significant reduction of Rac activation; also recorded: dose dependent reduction of Rac activation	~100	> 100	effectively inhibit proliferation	significantly reduced the bioluminescence	relatively stable over the course of treatment	–	–
CCc1ccc(CN(C)C(=O)CCc2nnc(CCc3c[nH]c4ccccc34)o2)cc1 [Compound 5]	–	–	–	–	–	–	–	–	–	induced apoptosis	affected PDE6D/ARL2/3-dependent trafficking of RAS
